Measurements as given in PubChem BioAssay AID1552 (Sanford-Burnham Center for Chemical Genomics, 2009).
The source made the active and inactive calls. No rule for the calls is given here.

target: Ubiquitin-conjugating enzyme E2 N (Homo sapiens) (UniProt P61088); experiment: UBE2N binders by NMR, biophysical, purified protein (AID 1552); conditions: NMR binding to purified UBE2N
Sequence (P61088 whole entry, looked up): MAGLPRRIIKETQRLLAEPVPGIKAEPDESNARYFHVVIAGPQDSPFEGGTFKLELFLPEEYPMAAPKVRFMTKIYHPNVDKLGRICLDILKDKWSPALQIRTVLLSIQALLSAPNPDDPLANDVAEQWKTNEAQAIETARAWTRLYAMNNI

Row | SMILES | Kd
1 | O=C(O)c1ccc(-c2cccs2)cc1 | > 4 mM (inactive)
2 | COc1ccc(C[C@H]2NC[C@H](O)[C@H]2OC(C)=O)cc1 | > 4 mM (inactive)
3 | Nc1cc(=O)[nH]c(=S)n1-c1ccc(F)cc1 | > 4 mM (inactive)
4 | CC(=O)c1cccc(NS(=O)(=O)N2CCCCC2)c1 | > 4 mM (inactive)
5 | CCN1CCc2c(sc(N)c2C#N)C1 | > 4 mM (inactive)
6 | COc1ccc(C2(C)CC(=O)NC2=O)cc1 (centres undefined) | > 4 mM (inactive)
7 | C=CCc1ccc2c(c1)OCO2 | > 4 mM (inactive)
8 | COc1cc(-c2nnc(NC(C)=O)o2)cc(OC)c1OC | > 4 mM (inactive)
9 | c1ccc(-c2nsc(N3CCNCC3)n2)cc1 | > 4 mM (inactive)
10 | NC(=O)C12CC3CC(C1)C(=O)C(C3)C2 | > 4 mM (inactive)
11 | CN1CCCC1C(=O)O (centres undefined) | > 4 mM (inactive)
12 | O=C(NCc1cccc(Cl)c1)c1cccnc1 | > 4 mM (inactive)
13 | CN1C2CC[C@@H]1CC(OC(=O)[C@H](CO)c1ccccc1)C2 (some centres undefined) | > 4 mM (inactive)
14 | O=C(NN=C1CCCC1)c1ccncc1 | > 4 mM (inactive)
15 | Cc1ccc(CO)o1 | > 4 mM (inactive)
16 | Cn1c(=O)cc(N2CCCCC2)[nH]c1=O | > 4 mM (inactive)
17 | NC(=O)CSc1ccc(Br)cc1 | > 4 mM (inactive)
18 | Cc1ccc(NC(=O)/C=C2\SC(=O)NC2=O)cc1 | > 4 mM (inactive)
19 | COCc1c(CN)cnc(C)c1N | > 4 mM (inactive)
20 | CNc1nc(OC)nc(N2CCOCC2)n1 | > 4 mM (inactive)
21 | CC(=O)O[C@H]1CC[C@@]2(C)C(=CC(=O)C3C4CCC(C(C)CCCC(C)C)[C@@]4(C)CCC32)C1 (some centres undefined) | > 4 mM (inactive)
22 | CCC(=O)NC(=S)Nc1ccc(N2CCOCC2)cc1 | > 4 mM (inactive)
23 | c1ccc(Cc2nnc3sc(-c4ccncc4)nn23)cc1 | > 4 mM (inactive)

Row | SMILES | Kd
24 | NC(=O)Cc1nc(-c2ccc(F)cc2)cs1 | > 4 mM (inactive)
25 | Cc1cc([N+](=O)[O-])cc[n+]1[O-] | > 4 mM (inactive)
26 | CC(=O)Nc1cccs1 | > 4 mM (inactive)
27 | CSc1ccccc1NC(=O)c1ccncc1 | > 4 mM (inactive)
28 | C/C(=N\NC(N)=S)C(=O)O | > 4 mM (inactive)
29 | Cc1nnc(SCc2cccs2)[nH]c1=O | > 4 mM (inactive)
30 | CC(=O)NC(=S)Nc1ccc(C(C)=O)cc1 | > 4 mM (inactive)
31 | CC(=O)Nc1cccc(NC(=O)c2ccco2)c1 | > 4 mM (inactive)
32 | CC1=NNC(=O)C1CCc1ccncc1 (centres undefined) | > 4 mM (inactive)
33 | O=C(O)c1cccc2c1OCC2 | > 4 mM (inactive)
34 | COc1ccc(C(C)=O)c(O)c1 | > 4 mM (inactive)
35 | COc1cc2c(cc1OC)C1Cc3ccc(OC)c(OC)c3CN1CC2 (centres undefined) | > 4 mM (inactive)
36 | C[C@@H]1CC[C@@]2(OC1)O[C@H]1CC3C4CC[C@H]5C[C@@H](O)CC[C@]5(C)C4CC[C@]3(C)[C@H]1[C@@H]2C (some centres undefined) | > 4 mM (inactive)
37 | O=C1COc2ccccc2C(=O)N1 | > 4 mM (inactive)
38 | CC1=NCCc2c1[nH]c1cc(O)ccc21 | > 4 mM (inactive)
39 | CNC(=O)c1cccc(NC(=S)NC)c1 | > 4 mM (inactive)
40 | CC(C)[C@@H]1CC[C@@H](C)CC1=O | > 4 mM (inactive)
41 | NCCCCNCCCN | > 4 mM (inactive)
42 | COC(=O)N1CCN(c2ccc(OC)cc2)CC1 | > 4 mM (inactive)
43 | CS(=O)(=O)N1CCN(C(=O)c2ccccc2)CC1 | > 4 mM (inactive)
44 | O=C(O)CCC(=O)NCc1cccnc1 | > 4 mM (inactive)
45 | CCc1c(C(=O)N2CCOCC2)csc1C | > 4 mM (inactive)
46 | Cc1nc(N)sc1C(=O)Nc1nccs1 | > 4 mM (inactive)

Row | SMILES | Kd
47 | CC1(C)N=C2C(=N)C=CC=C2N1O | > 4 mM (inactive)
48 | COc1ccc(-c2c(OC)c3c(OC)c4c(cc3oc2=O)OC(C)(C)C=C4)cc1 | > 4 mM (inactive)
49 | COc1c(-c2coc3cc4c(cc3c2=O)CC(O)C(C)(C)O4)ccc2c1C=CC(C)(C)O2 (centres undefined) | > 4 mM (inactive)
50 | COc1cc(OC)c2c(=O)c(O)c(-c3ccc(OC)c(OC)c3)oc2c1 | > 4 mM (inactive)
51 | O=C(O)CC1NCCNC1=O (centres undefined) | > 4 mM (inactive)
52 | CN(C)C(=O)CSc1cccc2cccnc12 | > 4 mM (inactive)
53 | CC(=O)C1CCC2C3CCC4C[C@H](O)CCC4(C)C3C[C@H](O)C12C (some centres undefined) | > 4 mM (inactive)
54 | Cn1c(=O)c2c(ncn2C)n(C)c1=O | > 4 mM (inactive)
55 | CCc1noc(C)c1C(=O)Nc1ncc(C)s1 | > 4 mM (inactive)
56 | O=S1(=O)CCC(NC(=S)Nc2ccccc2)C1 (centres undefined) | > 4 mM (inactive)
57 | O=C(O)CCN1CCc2ccccc2C1c1ccncc1 (centres undefined) | > 4 mM (inactive)
58 | O=C1CC(=O)N2N=C(c3ccccc3)SC2=N1 | > 4 mM (inactive)
59 | C[C@@H]1CC[C@@]2(OC1)OC1C(O)C3C4CC[C@H]5C[C@H](O[C@@H]6O[C@H](CO)[C@H](O[C@@H]7O[C@H](CO)[C@@H](O)[C@H](O[C@@H]8OC[C@@H](O)[C@H](O)[C@H]8O)[C@H]7O[C@@H]7O[C@H](CO)[C@H](O)[C@H](O[C@@H]8O[C@H](CO)[C@@H](O)[C@H](O)[C@H]8O)[C@H]7O)[C@H](O)[C@H]6O)[C@H](O)C[C@]5(C)C4CC[C@]3(C)C1[C@@H]2C (some centres undefined) | > 4 mM (inactive)
60 | Nc1cc(F)nc(F)n1 | > 4 mM (inactive)
61 | OC1CCCN(Cc2ccccc2)C1 (centres undefined) | > 4 mM (inactive)
62 | O=C(Nc1nccs1)c1ccc(=O)[nH]n1 | > 4 mM (inactive)
63 | CCOc1ccc(-c2n[nH]c(=S)n2C)cc1 | > 4 mM (inactive)
64 | CC(=O)OC1CCC2(C)C3CC(=O)C4(C)C(CC5OC6(CCC(C)CO6)[C@@H](C)C54)C3CC[C@H]2C1 (some centres undefined) | > 4 mM (inactive)
65 | Cc1ccc2cc(C(=O)O)ccc2n1 | > 4 mM (inactive)
66 | CC[C@H]1CN2CCC1C[C@@H]2[C@@H](O)c1ccnc2ccc(OC)cc12 (some centres undefined) | > 4 mM (inactive)
67 | Cn1c(NCC(=O)O)nc2c1c(=O)[nH]c(=O)n2C | > 4 mM (inactive)
68 | OCc1ccc(N2CCOCC2)nc1 | > 4 mM (inactive)
69 | NC(=O)C1CC2C=CC1C2 (centres undefined) | > 4 mM (inactive)

Row | SMILES | Kd
70 | CN1CC(=O)Nc2ccc([N+](=O)[O-])cc2C1=O | > 4 mM (inactive)
71 | COc1cc2c(c(OC)c1OC)-c1ccc(O)c(=O)cc1[C@@H](NC(C)=O)CC2 | > 4 mM (inactive)
72 | O=C(Nc1ccc(O)cc1)N1CCOCC1 | > 4 mM (inactive)
73 | OC[C@H]1O[C@@](CO)(O[C@@H]2O[C@H](CO)[C@@H](O)[C@H](O)[C@H]2O)[C@@H](O[C@@H]2O[C@H](CO)[C@@H](O)[C@H](O)[C@H]2O)[C@@H]1O | > 4 mM (inactive)
74 | c1ccc(C[N+]23CCN(CC2)c2ccccc23)cc1 | > 4 mM (inactive)
75 | CC(C)c1c(O)ccc2c1CCC1[C@@](C)(C=O)CCC[C@]21C (some centres undefined) | > 4 mM (inactive)
76 | COc1cc(-c2csc(C)n2)ccc1O | > 4 mM (inactive)
77 | c1ccc(-c2csc3ncn4nnnc4c23)cc1 | > 4 mM (inactive)
78 | CCOC12NC(=O)CC(=O)N1C(c1ccccc1)=CS2 (centres undefined) | > 4 mM (inactive)
79 | CN(C)N1C(=O)C2CCCCC2C1=O (centres undefined) | > 4 mM (inactive)
80 | CC(=O)Oc1cc2c(C(C)=O)coc2c2ccccc12 | > 4 mM (inactive)
81 | COC(=O)c1c(C)c2c(c(C)c1O)OC(=O)c1c(C)c(Cl)c(O)c(Cl)c1O2 | > 4 mM (inactive)
82 | Cc1cc(NC(=O)c2cc(C)on2)no1 | > 4 mM (inactive)
83 | Cc1cc(N2CCN(C)CC2)ncn1 | > 4 mM (inactive)
84 | O=C(O)CC1C(=O)NCCN1Cc1cccs1 (centres undefined) | > 4 mM (inactive)
85 | Cc1c(F)cccc1NS(=O)(=O)c1ccccc1C#N | > 4 mM (inactive)
86 | O=C(O)c1cc2ccccc2s1 | > 4 mM (inactive)
87 | Cc1ccccc1NC(=O)c1ccccc1 | > 4 mM (inactive)
88 | COc1cc2nc(-c3cccs3)oc(=O)c2cc1OC | > 4 mM (inactive)
89 | CCC(C)C(=O)O[C@H]1[C@H](O)C2C(CN3CC(C)CCC3[C@@]2(C)O)C2C[C@]34O[C@]5(O)C(OC(=O)C(C)(O)CC)CC[C@@]3(C)C5C(OC(C)=O)[C@@H](OC(C)=O)C4[C@@]21O (some centres undefined) | > 4 mM (inactive)
90 | CN(C)C(=S)Nc1nc2ccccc2s1 | > 4 mM (inactive)
91 | CC(=O)Nc1c(C)n(C)n(-c2ccccc2)c1=O | > 4 mM (inactive)
92 | Cc1ccc2cc(CO)ccc2n1 | > 4 mM (inactive)

Row | SMILES | Kd
93 | COC(=O)c1cnccc1C(F)(F)F | > 4 mM (inactive)
94 | Cc1ccc(N2C(=O)C3C4C=CC(O4)C3C2=O)cc1 (centres undefined) | > 4 mM (inactive)
95 | CC(=O)c1ccc(CC2SC(N)=NC2=O)cc1 (centres undefined) | > 4 mM (inactive)
96 | COC1=CC23CCCN2CCc2cc4c(cc2C3C1O)OCO4 (centres undefined) | > 4 mM (inactive)
97 | CC(C)c1ccc2c(c1)CCC1C(C)(C(N)=O)CCCC21C (centres undefined) | > 4 mM (inactive)
98 | Cc1cc2c(=O)n(C)c(SCC(N)=O)nc2s1 | > 4 mM (inactive)
99 | Cc1nnc(C)n1/N=C/c1cccs1 | > 4 mM (inactive)
100 | CC(C)NC(=S)NCc1cnn(C)c1 | > 4 mM (inactive)
101 | Fc1ccc2onc(C3CCNCC3)c2c1 | > 4 mM (inactive)
102 | O=C(c1ccncc1)N1CCN(C(=O)c2ccncc2)CC1 | > 4 mM (inactive)
103 | CSc1nnc(CN2CCSCC2)n1C | > 4 mM (inactive)
104 | Cc1c(C(=O)N2CCOCC2)oc2c1C(=O)CC(C)(C)C2 | > 4 mM (inactive)
105 | O=C(O)C1CSC(c2cccnc2)N1 (centres undefined) | > 4 mM (inactive)
106 | O=C1CSC(=S)N1Cc1cccnc1 | > 4 mM (inactive)
107 | CC(=O)c1c(C)n(O)c2ccc3nonc3c12 | > 4 mM (inactive)
108 | NC(=O)c1ccc(Cl)c(N2C(=O)CCC2=O)c1 | > 4 mM (inactive)
109 | Cc1cc(=O)n2[nH]c(C)cc2n1 | > 4 mM (inactive)
110 | COC(=O)c1sc(N)nc1C | > 4 mM (inactive)
111 | CC(=O)O[C@@H]1CC2C(C)(C)[C@@H](O)CC[C@]2(C)C2CC[C@@]3(C)[C@H](c4ccoc4)OC(=O)[C@H]4O[C@]43[C@@]21C (some centres undefined) | > 4 mM (inactive)
112 | CSc1nnc2c(n1)OC=Nc1ccccc1-2 | > 4 mM (inactive)
113 | NC1=NC(=O)C(Cc2cccc([N+](=O)[O-])c2)S1 (centres undefined) | > 4 mM (inactive)
114 | C/C=C/c1ccc2c(c1)OCO2 | > 4 mM (inactive)
